We go through one compound from patent publication US20260000637A1, “METHOD OF IMPROVING SLEEP” (VANDA PHARMACEUTICALS INC., priority 2019, published 2026).

The structures appear in SMILES notation. Values joined by “and” are separate entries in the source; they are usually repeats but may differ in a detail not shown here. Equal values may be shown once.

The subject of experiment [1] is individuals diagnosed with DSWPD and having at least one copy of the rs184039278 CRY1 allele. Put plainly: Sleep parameters after 20 mg tasimelteon before bedtime, by rs184039278 CRY1 genotype. In kind it is in vivo, human. The protocol:
In a study of genetic variations associated with sleep-wake patterns, Applicant found a significant association between the rs184039278 CRY1 allele and efficacy of treatment with tasimelteon. […] Both groups were treated with 20 mg of tasimelteon before bed.

For experiment [2], the system named is totally blind patients with Non-24. To be noted: cited from earlier work.
Where [3] appears, read: individual DSWPD patients, rs184039278 CRY1 G/T, 20 mg tasimelteon prior to bedtime.

For `CCC(=O)NC[C@@H]1C[C@H]1c1cccc2c1CCO2` [tasimelteon, Tasimelteon], the “total sleep time (TST), WT versus MT individuals (FIG. 1)” value in experiment [1] (WT (no rs184039278 CRY1 allele) compared to MT (at least one copy), both 20 mg tasimelteon before bed) was “both lower and more variable than for MT individuals”. Moreover, in experiment [1] (setting [3]), the “Total Sleep Time In First Two-Thirds Of Night” value is 308 min and 293.5 min; the “percentage of total sleep time (sleep efficiency)” value is 96 and 91. For the same compound, in experiment [1] (individuals having at least one copy of the rs184039278 CRY1 allele, tasimelteon before bedtime), the “sleep parameters (LPS, sleep efficiency, REM sleep duration, TST, WASO)” value is “improvements in one or more sleep parameters”. In experiment [2], the “efficacy on circadian timing system and sleep” value is “phase advance the circadian timing system (CTS) and to improve nighttime sleep and decrease daytime sleep”.
